Consider 23 compounds from US4695581A, “2-(3,5-dialkyl-4-hydroxyphenyl)indole derivatives” (Teikoku Hormone Mfg. Co., Ltd., priority 1984, dated 1987).

Where a name gives a salt, the structure may show the parent alone.

Data set [1] has as its system SRS-A-like active substance. The experiment in a line: A23187-induced pleurisy; inhibition of formation of SRS-A-like active substance in pleural exudate. It is filed as in vivo, rat (Wistar-strain, male, 11 weeks old). Conditions: Rattus norvegicus, po, p.o., 60 minutes before intrapleural A23187, rats, vs solvent control, read-out: Inhibitory activity on the formation of SRS-A-like active substance. The procedure: (1) Preparation of A23187 -induced pleurisy Under ether anaesthesia, 0.2 ml of 100 μM A23187 (prepared by adding injectable distilled water in a 2 mM A23187 ethanol solution) was administered intrapleurally to rats (Wistar-strain, male, 11 weeks old). Twenty minutes after the administration, the rats were exsanguinated and the pleural exudate was harvested. […] (2) Measurement of SRS-A-like active substance To the exudate obtained in (1) was added 4 times its volume of ice-cooled ethanol. They were well mixed, and then centrifuged. […] The solution was added to SEP-PAK® (C18) and SRS-A-like active substance was partially purified. […] The residue was dissolved in purified water in an amount corresponding to the amount of the exudate. The SRS-A-like active substance was assayed on the basis of contraction of the ileum of guinea pig (Hartley-strain, male, body weight 400-500 g) in the presence of atropine and Pyrilamine. The presence of SRS-A was confirmed by the fact that the contraction of the isolated ileum by the test solution was antagonized by FPL-55712 which is a specific antagonist for SRS-A. The results are shown in the following table. The activity of inhibiting the formation of an SRS-A-like active substance is indicated as the percent inhibition based on a control group to which only the solvent was administered.

The next data set has as its system cyclooxygenase. Conditions: known from the prior art; cited from earlier work.
Another data set relates to lipoxygenase. Conditions: known from the prior art; cited from earlier work.
The subject of a further data set is SRS-A. As to the kind of experiment: Contraction of isolated guinea pig ileum by the test solution (confirmation of SRS-A). The note with it: in the presence of atropine and Pyrilamine. Details: species or system guinea pig (Hartley-strain, male). The procedure:
The SRS-A-like active substance was assayed on the basis of contraction of the ileum of guinea pig (Hartley-strain, male, body weight 400-500 g) in the presence of atropine and Pyrilamine. The presence of SRS-A was confirmed by the fact that the contraction of the isolated ileum by the test solution was antagonized by FPL-55712 which is a specific antagonist for SRS-A.

In another data set the test system is SD-strain male rats. The experiment in a line: Toxicity, oral administration, observation for 2 weeks. Format: in vivo, rat (SD-strain. The note with it: 5 g/kg, 10% gum arabic suspension, 5-membered groups. The source says:
The test compound was suspended in a 10% gum arabic solution, and orally administered to SD-strain male rats (body weight 100-115 g) in 5-membered groups.

Consider `Cc1ccc2c(C)c(-c3cc(C)c(O)c(C)c3)[nH]c2c1` [Example 14, 2-(4-Hydroxy-3,5-dimethylphenyl)-3,6-dimethylindole], for which the inhibition at 10 mg/kg in data set [1] was found to be 30.7%.

Take `Cc1cc(-c2[nH]c3c(C)cccc3c2C)cc(C)c1O` [Example 16, 2-(4-Hydroxy-3,5-dimethylphenyl)-3,7-dimethylindole]: in data set [1], the inhibition at 10 mg/kg came out at 37.5%.

Take `CCc1cc(-c2[nH]c3ccccc3c2C)cc(CC)c1O` [Example 46, 2-(3,5-diethyl-4-hydroxyphenyl)-3-methylindole]: in data set [1], the inhibition at 10 mg/kg was determined as 22.9% and the inhibition at 30 mg/kg is 74.2%.

Consider `Cc1cc(-c2[nH]c3ccc(N)cc3c2C)cc(C)c1O` [Example 33, 5-amino-2-(4-hydroxy-3,5-dimethylphenyl)-3-methylindole], for which the inhibition at 10 mg/kg in data set [1] came to 68.1%.

Regarding `CSc1ccc2[nH]c(-c3cc(C)c(O)c(C)c3)c(C)c2c1` [Example 10, 2-(4-hydroxy-3,5-dimethylphenyl)-3-methyl-5-methylthioindole], the inhibition at 10 mg/kg in data set [1] is 41%.

For `CCOc1ccc2[nH]c(-c3cc(C)c(O)c(C)c3)c(C)c2c1` [Example 8, 5-Ethoxy-2-(4-hydroxy-3,5-dimethylphenyl)-3-methylindole], the inhibition at 10 mg/kg in data set [1] was 28.7%.

As for `CCCCCC#CCC#CCC#CCC#CCCCC(=O)O` [5,8,11,14-eicosatetraynoic acid], in the data set on cyclooxygenase, the “cyclooxygenase inhibition (lack of specificity)” value is “lack specificity and inhibit not only lipoxygenase but also cyclooxygenase”. Moreover, the lipoxygenase inhibition entry in the data set on lipoxygenase is recorded as “lipoxygenase inhibitors”.

As to `Cc1cc(-c2[nH]c3ccc(OC(C)C)cc3c2C)cc(C)c1O` [Example 9, 2-(4-Hydroxy-3,5-dimethylphenyl)-3-methyl-5-isopropoxyindole], the inhibition at 10 mg/kg in data set [1] stood at 58.4%.

In the case of `CCCOc1ccc2[nH]c(-c3cc(C)c(O)c(C)c3)c(C)c2c1` [Example 43, 2-(4-hydroxy-3,5-dimethylphenyl)-3-methyl-5-n-propoxyindole], the inhibition at 10 mg/kg in data set [1] was 46.2%.

As to `CCc1c(-c2cc(C)c(O)c(C)c2)[nH]c2ccc(OC)cc12` [Example 45, 3-ethyl-2-(4-hydroxy-3,5-dimethylphenyl)-5-methoxyindole], the inhibition at 10 mg/kg in data set [1] stood at 52.7%.

With `COc1cc2[nH]c(-c3cc(C)c(O)c(C)c3)c(C)c2cc1OC` [Example 24, 2-(4-Hydroxy-3,5-dimethylphenyl)-5,6-dimethoxy-3-methylindole], the inhibition at 10 mg/kg in data set [1] is 70.4%.

In the case of `CCN(CC)CCOc1ccc2[nH]c(-c3cc(C)c(O)c(C)c3)c(C)c2c1` [Example 35, 5-(2-diethylaminoethoxy)-2-(4-hydroxy-3,5-dimethylphenyl)-3-methylindole], the inhibition at 10 mg/kg in data set [1] was found to be 39.1%.

Regarding `CCCc1c(OCC(O)COc2ccc3c(=O)cc(C(=O)O)oc3c2CCC)ccc(C(C)=O)c1O` (centres unmarked) [FPL-55712], the “antagonism of contraction of the isolated ileum” value in the data set on SRS-A is recorded as “antagonized”.

In the case of `Cc1cc(-c2[nH]c3ccccc3c2C)cc(C)c1O` [Example 30, 2-(4-hydroxy-3,5-dimethylphenyl)-3-methylindole], in data set [1], the inhibition at 10 mg/kg worked out at 58% and the inhibition at 30 mg/kg stood at 90.2%.

Turning to `Cc1ccc2[nH]c(-c3cc(C)c(O)c(C)c3)c(C)c2c1` [Example 5, 2-(4-Hydroxy-3,5-dimethylphenyl)-3,5-dimethylindole], in data set [1], the inhibition at 10 mg/kg stood at 54.7%.

On to `CCc1cc(-c2[nH]c3ccccc3c2CC)cc(CC)c1O` [Example 50, 3-ethyl-2-(3,5-diethyl-4-hydroxyphenyl)indole], for which the inhibition at 10 mg/kg in data set [1] was found to be 21.5%.

On to `NC1=NN(c2cccc(C(F)(F)F)c2)CC1` [BW755C, 3-amino-1-(3-trifluoromethylphenyl)-2-pyrazoline], for which the “cyclooxygenase inhibition (lack of specificity)” value in the data set with cyclooxygenase is “lack specificity and inhibit not only lipoxygenase but also cyclooxygenase”. Further, in the data set with lipoxygenase, the lipoxygenase inhibition entry is reported as “lipoxygenase inhibitors”.

Turning to `CCc1c(-c2cc(C)c(O)c(C)c2)[nH]c2ccccc12` [Example 44, 3-ethyl-2-(4-hydroxy-3,5-dimethylphenyl)indole], in data set [1], the inhibition at 10 mg/kg turned out to be 46.9% and the inhibition at 30 mg/kg was 87.2%.

As for `CC(=O)Oc1ccc2[nH]c(-c3cc(C)c(O)c(C)c3)c(C)c2c1` [Example 37], in data set [1], the inhibition at 10 mg/kg came to 43.7%.

With `Cc1cc(-c2[nH]c3ccc(OCc4ccccc4)cc3c2C)cc(C)c1O` [Example 36, 5-benzyloxy-2-(4-hydroxy-3,5-dimethylphenyl)-3-methylindole], the inhibition at 10 mg/kg in data set [1] came out at 35.4%.

Consider `CCc1cc(-c2[nH]c3ccc(OC)cc3c2C)cc(CC)c1O` [Example 48, 2-(3,5-diethyl-4-hydroxyphenyl)-5-methoxy-3-methylindole], for which, in data set [1], the inhibition at 10 mg/kg was 28.3%.

With `CCN(CC)CCNc1ccc2[nH]c(-c3cc(C)c(O)c(C)c3)c(C)c2c1` [Example 38, 5-(2-diethylaminoethylamino)-2-(4-hydroxy-3,5-dimethylphenyl)-3-methylindole dihydrochloride], the inhibition at 10 mg/kg in data set [1] stood at 38.3%.

As to `COc1ccc2[nH]c(-c3cc(C)c(O)c(C)c3)c(C)c2c1` [Example 1, 2-(4-hydroxy-3,5-dimethylphenyl)-5-methoxy-3-methylindole], the inhibition at 10 mg/kg in data set [1] amounted to 66.2%. Besides, the death result in the data set with SD-strain male rats was “No case of death was observed”.
